Activity calls are given as the source filed them. No cut-off for these calls is given here.
Experiments:
[1] = Oral bioavailability in rat; format: ADME, organism-based; details: in vivo
[2] = Chemical stability of the compound at pH 1; format: physicochemical; details: buffer
[3] = biological target: Platelet-derived growth factor receptor beta (Homo sapiens, UniProt P09619); experiment: Inhibition of PDGFRbeta phosphorylation by cell based assay
[4] = biological target: Macrophage colony-stimulating factor 1 receptor (Homo sapiens, UniProt P07333); experiment: Inhibition of CSF1R phosphorylation by cell based assay
[5] = biological target: T1, Receptor-type tyrosine-protein kinase FLT3 (Homo sapiens, UniProt P36888); experiment: Inhibition of FLT3 phosphorylation by cell based assay
T1 sequence (P36888 whole entry): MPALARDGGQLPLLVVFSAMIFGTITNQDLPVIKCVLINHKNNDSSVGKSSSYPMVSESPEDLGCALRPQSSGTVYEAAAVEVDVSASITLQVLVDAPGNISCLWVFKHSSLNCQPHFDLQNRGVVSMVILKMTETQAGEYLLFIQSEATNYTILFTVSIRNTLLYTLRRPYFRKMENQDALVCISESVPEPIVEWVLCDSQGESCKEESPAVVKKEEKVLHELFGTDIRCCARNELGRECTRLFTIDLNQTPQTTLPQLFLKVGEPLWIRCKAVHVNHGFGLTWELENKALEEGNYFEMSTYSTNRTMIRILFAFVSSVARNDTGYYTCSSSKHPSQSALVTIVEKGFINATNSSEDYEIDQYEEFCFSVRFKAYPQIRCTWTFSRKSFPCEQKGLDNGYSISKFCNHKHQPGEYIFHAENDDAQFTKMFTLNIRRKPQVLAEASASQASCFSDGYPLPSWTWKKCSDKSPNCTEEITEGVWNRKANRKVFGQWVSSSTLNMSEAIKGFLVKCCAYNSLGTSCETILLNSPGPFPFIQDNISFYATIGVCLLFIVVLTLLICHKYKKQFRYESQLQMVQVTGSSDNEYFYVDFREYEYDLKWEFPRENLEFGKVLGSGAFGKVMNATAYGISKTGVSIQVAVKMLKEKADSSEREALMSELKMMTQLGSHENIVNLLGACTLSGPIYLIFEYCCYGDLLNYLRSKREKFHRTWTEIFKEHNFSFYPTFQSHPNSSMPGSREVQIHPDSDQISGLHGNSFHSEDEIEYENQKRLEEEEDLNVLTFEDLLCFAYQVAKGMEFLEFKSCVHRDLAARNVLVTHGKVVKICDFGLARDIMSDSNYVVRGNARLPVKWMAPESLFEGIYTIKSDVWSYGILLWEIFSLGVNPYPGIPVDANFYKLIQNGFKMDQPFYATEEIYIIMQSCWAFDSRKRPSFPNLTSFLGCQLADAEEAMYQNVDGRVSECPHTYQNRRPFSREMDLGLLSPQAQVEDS

[6] = biological target: Platelet-derived growth factor receptor alpha (Homo sapiens) (UniProt P16234); experiment: Inhibition of PDGFRalpha phosphorylation by cell based assay
[7] = biological target: Vascular endothelial growth factor receptor 2 (Homo sapiens) (UniProt P35968); experiment: Inhibition of VEGFR2 phosphorylation by cell based assay
[8] = test system: Mus musculus; experiment: Inhibition of PDGFRalpha phosphorylation in rat C6 cells xenografted in po dosed nude mouse after 6 hrs; format: functional, organism-based
[9] = test system: Mus musculus; experiment: Inhibition of PDGFRalpha phosphorylation in rat C6 cells xenografted in nude mouse at 3 mg/kg, po; format: functional, organism-based; set-up: dose 3 mg/kg; details: TDE = time-dependent effect
[10] = biological target: Aurora kinase B (Homo sapiens, UniProt Q96GD4); experiment: Inhibition of aurora-B
[11] = biological target: Mast/stem cell growth factor receptor Kit (Homo sapiens) (UniProt P10721); experiment: Inhibition of c-Kit
[12] = Clearance in rat; format: ADME, organism-based; details: in vivo
[13] = Half life in iv dosed rat; format: ADME, organism-based; details: in vivo

Sequence of Aurora kinase B (Q96GD4 whole entry): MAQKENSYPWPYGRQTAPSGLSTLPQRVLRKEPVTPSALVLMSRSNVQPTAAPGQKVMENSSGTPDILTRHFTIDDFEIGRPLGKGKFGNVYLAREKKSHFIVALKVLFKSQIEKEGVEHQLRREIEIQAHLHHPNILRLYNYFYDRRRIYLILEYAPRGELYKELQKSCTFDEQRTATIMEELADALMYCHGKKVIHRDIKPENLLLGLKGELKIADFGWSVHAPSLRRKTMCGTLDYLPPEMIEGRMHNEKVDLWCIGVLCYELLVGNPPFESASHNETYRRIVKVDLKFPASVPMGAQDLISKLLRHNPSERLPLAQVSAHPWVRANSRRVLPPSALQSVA
Sequence of Platelet-derived growth factor receptor beta (P09619 whole entry): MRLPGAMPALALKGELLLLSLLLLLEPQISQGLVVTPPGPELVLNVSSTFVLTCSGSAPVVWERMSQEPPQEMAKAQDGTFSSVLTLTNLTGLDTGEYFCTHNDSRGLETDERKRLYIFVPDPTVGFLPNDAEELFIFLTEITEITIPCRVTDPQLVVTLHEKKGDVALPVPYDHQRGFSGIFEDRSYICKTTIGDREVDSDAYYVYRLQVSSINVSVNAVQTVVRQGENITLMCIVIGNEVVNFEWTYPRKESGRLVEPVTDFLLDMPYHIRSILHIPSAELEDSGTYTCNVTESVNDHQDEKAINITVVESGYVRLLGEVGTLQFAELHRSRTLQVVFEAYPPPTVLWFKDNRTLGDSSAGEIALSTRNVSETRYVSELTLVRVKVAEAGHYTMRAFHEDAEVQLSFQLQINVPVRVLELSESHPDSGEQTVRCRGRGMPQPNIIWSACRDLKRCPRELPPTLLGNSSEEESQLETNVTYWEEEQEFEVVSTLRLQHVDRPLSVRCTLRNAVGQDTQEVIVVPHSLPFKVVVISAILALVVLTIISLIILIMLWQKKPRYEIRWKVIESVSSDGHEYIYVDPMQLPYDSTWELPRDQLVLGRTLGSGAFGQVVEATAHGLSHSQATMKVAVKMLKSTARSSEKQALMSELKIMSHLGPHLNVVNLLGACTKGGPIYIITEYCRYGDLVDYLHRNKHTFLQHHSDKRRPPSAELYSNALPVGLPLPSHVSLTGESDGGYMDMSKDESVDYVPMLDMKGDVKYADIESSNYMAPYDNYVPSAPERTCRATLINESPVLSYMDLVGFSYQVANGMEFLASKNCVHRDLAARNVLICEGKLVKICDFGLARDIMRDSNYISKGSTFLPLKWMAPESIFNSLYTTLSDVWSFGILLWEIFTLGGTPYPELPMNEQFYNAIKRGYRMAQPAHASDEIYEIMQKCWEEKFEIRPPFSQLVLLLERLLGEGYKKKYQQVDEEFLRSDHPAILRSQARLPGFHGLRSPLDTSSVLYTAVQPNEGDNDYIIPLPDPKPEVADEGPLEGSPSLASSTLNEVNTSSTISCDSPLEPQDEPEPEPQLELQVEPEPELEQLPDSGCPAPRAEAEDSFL
Sequence of Macrophage colony-stimulating factor 1 receptor (P07333 whole entry): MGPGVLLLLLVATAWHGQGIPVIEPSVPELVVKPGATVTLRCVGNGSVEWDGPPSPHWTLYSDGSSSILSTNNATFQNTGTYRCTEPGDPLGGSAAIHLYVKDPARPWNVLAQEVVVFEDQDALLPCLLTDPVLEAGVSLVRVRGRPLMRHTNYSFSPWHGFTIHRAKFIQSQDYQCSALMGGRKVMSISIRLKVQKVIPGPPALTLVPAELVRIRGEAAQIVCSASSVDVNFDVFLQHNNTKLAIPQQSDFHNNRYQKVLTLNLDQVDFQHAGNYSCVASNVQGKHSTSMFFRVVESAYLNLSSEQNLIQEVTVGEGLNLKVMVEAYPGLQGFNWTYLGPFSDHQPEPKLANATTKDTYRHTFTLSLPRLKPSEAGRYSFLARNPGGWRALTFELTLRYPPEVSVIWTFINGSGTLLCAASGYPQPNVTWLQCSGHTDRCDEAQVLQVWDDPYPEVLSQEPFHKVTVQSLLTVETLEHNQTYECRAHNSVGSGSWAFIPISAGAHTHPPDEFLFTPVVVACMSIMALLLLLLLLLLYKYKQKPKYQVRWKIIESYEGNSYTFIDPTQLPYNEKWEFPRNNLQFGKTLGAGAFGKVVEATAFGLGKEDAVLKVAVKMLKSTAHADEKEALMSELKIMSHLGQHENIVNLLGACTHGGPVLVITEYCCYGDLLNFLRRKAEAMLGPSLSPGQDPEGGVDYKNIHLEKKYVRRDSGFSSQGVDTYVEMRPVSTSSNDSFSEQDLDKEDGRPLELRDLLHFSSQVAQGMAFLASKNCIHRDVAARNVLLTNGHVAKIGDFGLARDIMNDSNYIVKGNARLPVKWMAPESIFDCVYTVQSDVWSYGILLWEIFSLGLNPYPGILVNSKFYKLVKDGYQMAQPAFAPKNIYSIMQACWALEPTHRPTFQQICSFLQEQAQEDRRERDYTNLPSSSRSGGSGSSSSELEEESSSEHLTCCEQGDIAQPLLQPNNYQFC
Sequence of Platelet-derived growth factor receptor alpha (Homo sapiens) (P16234 whole entry): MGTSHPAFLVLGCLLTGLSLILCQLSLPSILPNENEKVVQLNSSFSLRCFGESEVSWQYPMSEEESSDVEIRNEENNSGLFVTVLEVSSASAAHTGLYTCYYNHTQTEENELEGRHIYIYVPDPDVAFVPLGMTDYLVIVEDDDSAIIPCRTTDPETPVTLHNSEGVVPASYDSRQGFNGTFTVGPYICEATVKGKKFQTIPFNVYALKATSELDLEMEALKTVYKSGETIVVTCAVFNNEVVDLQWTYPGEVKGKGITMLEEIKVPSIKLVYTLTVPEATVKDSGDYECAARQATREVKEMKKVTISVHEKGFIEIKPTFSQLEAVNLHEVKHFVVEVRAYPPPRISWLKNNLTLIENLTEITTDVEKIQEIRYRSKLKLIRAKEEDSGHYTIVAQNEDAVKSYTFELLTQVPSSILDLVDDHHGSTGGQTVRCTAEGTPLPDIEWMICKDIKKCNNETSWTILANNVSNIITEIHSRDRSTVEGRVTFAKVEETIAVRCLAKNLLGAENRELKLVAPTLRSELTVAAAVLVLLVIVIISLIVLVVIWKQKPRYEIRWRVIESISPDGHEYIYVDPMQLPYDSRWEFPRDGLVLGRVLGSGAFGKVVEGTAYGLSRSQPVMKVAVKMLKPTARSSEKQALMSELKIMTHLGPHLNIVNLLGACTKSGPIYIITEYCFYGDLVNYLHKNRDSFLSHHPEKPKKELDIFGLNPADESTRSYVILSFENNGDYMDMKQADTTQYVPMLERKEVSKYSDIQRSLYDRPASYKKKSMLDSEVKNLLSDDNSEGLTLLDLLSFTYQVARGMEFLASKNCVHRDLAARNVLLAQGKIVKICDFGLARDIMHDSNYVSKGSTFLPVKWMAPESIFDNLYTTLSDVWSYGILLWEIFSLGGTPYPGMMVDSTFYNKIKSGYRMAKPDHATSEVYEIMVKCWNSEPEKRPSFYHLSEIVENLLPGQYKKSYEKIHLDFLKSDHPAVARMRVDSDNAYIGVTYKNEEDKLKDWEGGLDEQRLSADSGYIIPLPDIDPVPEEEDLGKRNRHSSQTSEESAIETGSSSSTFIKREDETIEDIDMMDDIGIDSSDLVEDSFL
Sequence of Mast/stem cell growth factor receptor Kit (Homo sapiens) (P10721 whole entry): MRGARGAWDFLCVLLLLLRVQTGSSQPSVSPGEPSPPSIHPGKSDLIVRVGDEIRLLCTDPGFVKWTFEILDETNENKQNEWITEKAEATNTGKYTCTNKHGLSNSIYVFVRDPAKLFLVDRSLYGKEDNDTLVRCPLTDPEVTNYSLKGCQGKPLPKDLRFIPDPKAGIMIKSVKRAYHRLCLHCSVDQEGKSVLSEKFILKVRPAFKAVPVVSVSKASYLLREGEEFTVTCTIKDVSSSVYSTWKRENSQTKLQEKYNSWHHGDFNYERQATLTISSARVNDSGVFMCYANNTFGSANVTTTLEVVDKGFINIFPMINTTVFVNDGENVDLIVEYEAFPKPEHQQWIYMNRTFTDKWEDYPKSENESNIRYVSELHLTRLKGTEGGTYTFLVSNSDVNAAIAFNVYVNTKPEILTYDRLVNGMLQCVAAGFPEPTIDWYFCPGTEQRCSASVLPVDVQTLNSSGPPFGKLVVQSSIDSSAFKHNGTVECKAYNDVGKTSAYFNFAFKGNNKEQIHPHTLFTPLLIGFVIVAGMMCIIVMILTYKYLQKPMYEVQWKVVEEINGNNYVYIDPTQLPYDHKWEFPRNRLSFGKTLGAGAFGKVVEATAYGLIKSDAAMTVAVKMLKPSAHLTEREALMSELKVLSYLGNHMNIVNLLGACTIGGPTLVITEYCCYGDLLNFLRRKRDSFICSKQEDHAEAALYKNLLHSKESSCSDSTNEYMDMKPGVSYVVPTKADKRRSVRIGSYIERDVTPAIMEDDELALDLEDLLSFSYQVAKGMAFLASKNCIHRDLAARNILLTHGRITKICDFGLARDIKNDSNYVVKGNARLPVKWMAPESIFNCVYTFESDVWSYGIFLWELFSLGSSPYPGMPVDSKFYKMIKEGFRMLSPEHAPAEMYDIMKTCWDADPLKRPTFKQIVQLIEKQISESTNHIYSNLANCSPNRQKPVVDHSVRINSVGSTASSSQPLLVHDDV

COc1cc2ncnc(Nc3cnn(CC(=O)Nc4ccc(N(C)C)cn4)c3)c2cc1OC
bioavailability [1]: < 20% | Stability [2]: 0.1 days | IC50 [3]: > 200 nM | IC50 [4]: > 1000 nM | IC50 [5]: 10 nM | inhibition [6]: Active | IC50 [7]: 453 nM

COc1cc2ncnc(Oc3ccc(CC(=O)Nc4cnn(C)c4)cc3)c2cc1OC
IC50 [3]: 40 nM | IC50 [4]: > 1000 nM | IC50 [5]: 80 nM | inhibition [6]: Active | IC50 [7]: 667 nM

COc1cccc(S(=O)(=O)NCc2ccc(Oc3ncnc4cc(OC)c(OC)cc34)cc2)c1
IC50 [3]: > 1000 nM | IC50 [4]: > 1000 nM | IC50 [5]: > 1000 nM | inhibition [6]: Active | IC50 [7]: > 10000 nM

COc1cccc(NC(=O)Cc2ccc(Oc3ncnc4cc(OC)c(OC)cc34)cc2)c1
IC50 [3]: 0.9 nM | IC50 [4]: 300 nM | IC50 [5]: 7 nM | inhibition [6]: Active | IC50 [7]: 8 nM

COCCOc1cc2c(Oc3cnn(CC(=O)Nc4cccc(OC)c4)c3)ncnc2cc1OC
bioavailability [1]: < 20% | Stability [2]: 0.1 days | IC50 [3]: 2 nM | IC50 [4]: 90 nM | IC50 [5]: 3 nM | inhibition [6]: Active | IC50 [7]: < 5 nM

COc1cccc(NC(=O)Cc2ccc(Nc3ncnc4cc(OC)c(OC)cc34)cc2)c1
IC50 [3]: 10 nM | IC50 [4]: > 1000 nM | IC50 [5]: > 60 nM | inhibition [6]: Active | IC50 [7]: 175 nM

CCn1ccc(NC(=O)Cc2ccc(Oc3ncnc4cc(OC)c(OC)cc34)cc2)n1
IC50 [3]: 10 nM | IC50 [4]: > 1000 nM | IC50 [5]: 20 nM | inhibition [6]: Active | IC50 [7]: 172 nM

COc1cc2ncnc(Oc3ccc(CC(=O)Nc4cnn(C(C)C)c4)cc3)c2cc1OC
INH [6]: 2 nM | inhibition [8]: Dose-dependent effect | inhibition [9]: tde

CCn1cc(NC(=O)Cn2cc(Oc3ncnc4cc(OC)c(OC)cc34)cn2)cn1
bioavailability [1]: < 20% | Stability [2]: 0.1 days | IC50 [3]: 4 nM | IC50 [4]: 200 nM | IC50 [5]: 4 nM | inhibition [6]: Active | IC50 [7]: 35 nM

COc1cc2ncnc(Oc3ccc(CC(=O)Nc4ccc(N(C)C)cn4)cc3)c2cc1OC
IC50 [3]: 5 nM | IC50 [4]: 600 nM | IC50 [5]: 9 nM | inhibition [6]: Active | IC50 [7]: 22 nM

COc1cccc(NC(=O)NCc2ccc(Oc3ncnc4cc(OC)c(OC)cc34)cc2)c1
IC50 [3]: 9 nM | IC50 [4]: > 1000 nM | IC50 [5]: 8 nM | inhibition [6]: Active | IC50 [7]: 177 nM

COc1cc2ncnc(Nc3cnn(CC(=O)Nc4ccc(N(C)C)cc4)c3)c2cc1OC
IC50 [10]: > 10 nM | bioavailability [1]: < 20% | Stability [2]: 0.1 days | IC50 [3]: 6 nM | IC50 [4]: 600 nM | IC50 [5]: 4 nM | inhibition [6]: Active | IC50 [7]: 101 nM

COc1cccc(CC(=O)Nc2ccc(Oc3ncnc4cc(OC)c(OC)cc34)cc2)c1
IC50 [3]: 4 nM | IC50 [4]: 30 nM | IC50 [5]: 10 nM | inhibition [6]: Active | IC50 [7]: 209 nM

COc1cccc(COc2ccc(Oc3ncnc4cc(OC)c(OC)cc34)cc2)c1
IC50 [3]: 20 nM | IC50 [4]: 300 nM | IC50 [5]: 20 nM | inhibition [6]: Active | IC50 [7]: 128 nM

COc1cc2ncnc(Nc3cnn(CC(=O)Nc4cccc(F)c4)c3)c2cc1OC
IC50 [10]: < 0.2 nM | bioavailability [1]: < 20% | Stability [2]: 0.1 days | IC50 [3]: 10 nM | IC50 [4]: > 1000 nM | IC50 [5]: 4 nM | inhibition [6]: Active | IC50 [7]: 51 nM

COc1cccc(NC(=O)Cn2cc(Oc3ncnc4cc(OCCN5CCCC5)c(OC)cc34)cn2)c1
bioavailability [1]: < 20% | Stability [2]: 0.1 days | IC50 [3]: 1 nM | IC50 [4]: 30 nM | IC50 [5]: 5 nM | inhibition [6]: Active | IC50 [7]: 7 nM

COc1cccc(NC(=O)Cc2cccc(Oc3ncnc4cc(OC)c(OC)cc34)c2)c1
IC50 [3]: 300 nM | IC50 [4]: > 1000 nM | IC50 [5]: > 1000 nM | inhibition [6]: Active | IC50 [7]: 1010 nM

CCn1cc(NC(=O)Cc2cc(Oc3ccnc4cc(OC)c(OC)cc34)n[nH]2)cn1
inhibition [11]: inactive | IC50 [3]: > 1000 nM | IC50 [4]: > 1000 nM | IC50 [5]: > 1000 nM | inhibition [6]: Active | IC50 [7]: > 10000 nM

COc1cc2ncnc(Oc3cnn(CC(=O)Nc4ccc(N(C)C)cn4)c3)c2cc1OC
bioavailability [1]: < 20% | Stability [2]: 0.1 days | IC50 [3]: 3 nM | IC50 [4]: 20 nM | IC50 [5]: 3 nM | inhibition [6]: Active | IC50 [7]: 39 nM

COCCOc1cc2ncnc(Oc3cnn(CC(=O)Nc4cccc(OC)c4)c3)c2cc1OC
bioavailability [1]: < 20% | Stability [2]: 0.1 days | IC50 [3]: 0.3 nM | IC50 [4]: 8 nM | IC50 [5]: 2 nM | inhibition [6]: Active | IC50 [7]: 0.2 nM

COc1cccc(NC(=O)Cn2cc(Oc3ccnc4cc(OC)c(OC)cc34)cn2)c1
bioavailability [1]: < 20% | Stability [2]: 0.1 days | IC50 [3]: 2 nM | IC50 [4]: 40 nM | IC50 [5]: 20 nM | inhibition [6]: Active | IC50 [7]: 57 nM

COc1cccc(C(=O)NCc2ccc(Oc3ncnc4cc(OC)c(OC)cc34)cc2)c1
IC50 [3]: 300 nM | IC50 [4]: > 1000 nM | IC50 [5]: > 1000 nM | inhibition [6]: Active | IC50 [7]: 6140 nM

COc1cccc(CNC(=O)c2ccc(Oc3ncnc4cc(OC)c(OC)cc34)cc2)c1
IC50 [3]: 700 nM | IC50 [4]: > 1000 nM | IC50 [5]: > 400 nM | inhibition [6]: Active | IC50 [7]: 3060 nM

CCc1cc(NC(=O)Cc2ccc(Oc3ncnc4cc(OC)c(OC)cc34)cc2)n[nH]1
IC50 [3]: 4 nM | IC50 [4]: > 600 nM | IC50 [5]: 5 nM | inhibition [6]: Active | IC50 [7]: < 5 nM

CCn1cc(NC(=O)Cc2ccc(Oc3ncnc4cc(OC)c(OC)cc34)cc2)cn1
IC50 [3]: 3 nM | IC50 [4]: > 800 nM | IC50 [5]: 10 nM | inhibition [6]: Active | IC50 [7]: 29 nM

COc1cccc(NC(=O)Cn2cc(Nc3ncnc4cc(OC)c(OC)cc34)cn2)c1
IC50 [10]: > 10 nM | bioavailability [1]: < 20% | Stability [2]: 0.1 days | IC50 [3]: 10 nM | IC50 [4]: > 900 nM | IC50 [5]: > 20 nM | inhibition [6]: Active | IC50 [7]: 25 nM

COc1cccc(NC(=O)Cn2cc(Oc3ncnc4cc(OC)c(OCCN5CCCCC5)cc34)cn2)c1
clearance [12]: 75 mL/min/kg | half-life [13]: 24 min | bioavailability [1]: < 20% | Stability [2]: 0.1 days | IC50 [3]: 3 nM | IC50 [4]: 400 nM | IC50 [5]: 10 nM | inhibition [6]: Active | IC50 [7]: 31 nM

CCn1cc(NC(=O)Cc2ccc(Oc3ccnc4cc(OC)c(OC)cc34)cc2)cn1
IC50 [3]: 0.4 nM | IC50 [4]: 40 nM | IC50 [5]: 4 nM | inhibition [6]: Active | IC50 [7]: 12 nM

COc1cc2ncnc(Oc3ccc(CC(=O)Nc4cn[nH]c4)cc3)c2cc1OC
IC50 [3]: > 2000 nM | IC50 [4]: > 1000 nM | IC50 [5]: > 800 nM | inhibition [6]: Active | IC50 [7]: > 10000 nM

COc1cccc(NC(=O)Cn2cc(Oc3ncnc4cc(OC)cc(OC)c34)cn2)c1
bioavailability [1]: < 20% | Stability [2]: 0.1 days | IC50 [3]: 2 nM | IC50 [4]: 100 nM | IC50 [5]: 5 nM | inhibition [6]: Active | IC50 [7]: 30 nM

COc1cccc(NC(=O)Cn2cc(Oc3ncnc4cc(OC)c(OC)cc34)cn2)c1
bioavailability [1]: < 20% | Stability [2]: 0.1 days | IC50 [3]: 0.8 nM | IC50 [4]: 10 nM | IC50 [5]: 2 nM | inhibition [6]: Active | IC50 [7]: 0.4 nM

COc1cccc(NC(=O)Cn2cc(Oc3ccnc4cc(OC)c(C#N)cc34)cn2)c1
bioavailability [1]: < 20% | Stability [2]: 0.1 days | IC50 [3]: 2 nM | IC50 [4]: 50 nM | IC50 [5]: 40 nM | inhibition [6]: Active | IC50 [7]: 282 nM

Reference: ChEMBL document CHEMBL1938371, “Discovery of AZD2932, a new Quinazoline Ether Inhibitor with high affinity for VEGFR-2 and PDGFR tyrosine kinases” (Bioorg Med Chem Lett, 2012)
